The values that follow come from article PMC12125541, “Timed chromatin invasion during mitosis governs prototype foamy virus integration site selection and infectivity” (Nucleic Acids Research, 2025).

* marks the point of attachment. Biotin = O=C1N[C@H]2[C@H](CS[C@H]2CCCCC(=O)*)N1

In assay [1] the test system is recombinant NCPs. The assay can be described thus: Streptavidin pull-down of recombinant nucleosomes with biotinylated Gag CBS peptides. To be noted: 2 h at 4°C; for pull-down of nucleosomes: 75–150 mM NaCl, 1.5 μg biotinylated peptide, 3 μg NCP, Coomassie gel. The class given is binding, human. An excerpt: Recombinant nucleosome core particles (NCPs) (mono-nucleosomes) were assembled as previously described. Briefly, individual human histones H2A, H2B, H3, and H4 were purchased (The Histone Source; Colorado State University) and octamers were assembled by dialysis. The Widom-601 DNA [25] was generated by restriction enzyme digestion of a concatenated construct and purified by anion exchange chromatography onto a POROS-HQ column. NCPs were assembled with a ratio 1.1:1 (1.1 octamer:1 DNA) by successive steps of salt dialysis against TEN buffer (0–2 M NaCl, 10 mM Tris, pH 7.5, 1 mM ethylenediaminetetraacetic acid, 1 mM Dithiothreitol (DTT)). NCPs were kept at −80°C in 0 mM NaCl TEN buffer.
Twenty microliters of streptavidin beads (Dynabeads™ MyOne™ Streptavidin T1; Invitrogen; Thermo Fisher Scientific) were used per condition. StreptaBeads were washed twice with pull-down buffer (20 mM Tris–HCl, pH 7.5, 0.1% NP-40, 10% glycerol, 75–150 mM NaCl, 0.5 mM DTT, and 1 mM Phenylmethylsulfonyl fluoride (PMSF)) containing 75 mM of NaCl and 100 μg of bovine serum albumin (BSA), followed by one wash in the same conditions, without BSA. 1.5 μg of Gag CBS (chromatin binding site) biotinylated peptide and 3 μg of recombinant NCPs were added per condition, in a final volume of 800 μl of pull-down buffer with corresponding NaCl concentrations. The reaction mix was incubated for 2 h on a rotation wheel, at 4°C. Beads were washed three times with the corresponding NaCl concentration buffer, and bound proteins were eluted by the addition of 10 μl of SDS Sample Buffer 2.5×. Samples were separated by sodium dodecyl sulfate–polyacrylamide gel electrophoresis, and analyzed after colloidal Coomassie blue staining.

Assay [2] deals with NCP saturated with H4 tails (H2A–H2B acidic patch). The assay can be described thus: BLI competition: immobilized Gag CBS peptides versus NCP saturated with H4 tails. As to conditions: mean of two experiments; for binding to NCP saturated with WT H4 tail: 100 nM NCP pre-incubated with 100 μM H4 WT peptide at least 30 min at room temperature. The class given is binding, human. The procedure:
Quantitative interaction experiments were performed by biolayer interferometry (BLI), using a BLItz instrument (Octet® N1; Sartorius). Two different runs were performed: the first one, into water, to coat biosensors with biotinylated peptides (Table 1) and the second, into Blitz buffer [1× phosphate buffer saline, pH 7.4, 0.02% (v/v) Tween 20, 0.1% (w/v) BSA], to fix NCPs on immobilized peptides. All steps were performed under 2200 rpm shaking speed. Streptavidin biosensors (Octet®SA Biosensors; Reference 18-0009; Sartorius) were first pre-wet for at least 10 min with water. The baseline, with only water, was measured for 60 s. Ten micromolar Gag CBS biotinylated peptides (or H4 biotinylated peptides), diluted in water, were loaded onto the biosensors, for 180 s, to reach a binding of ∼1.5 nm, followed by a dissociation step of 180 s. Following the first run, coated biosensors were equilibrated for at least 10 min in Blitz buffer. The second run started with 60 s of baseline, followed by the association step, where biosensors were dipped into serial dilutions of NCPs (10, 25, 50, or 100 nM), for 300 s. Finally, the dissociation step was performed in Blitz buffer, for 300 s. For competition experiments, the second run started with 60 s of baseline in Blitz buffer, followed by 300 s of association step. During this step, solutions of 100 nM of NCPs were pre-incubated with or without 100 μM of H4 peptide [wild type (WT) or mutant, non-biotinylated], in Blitz buffer, for at least 30 min at room temperature. Finally, the dissociation step was performed in Blitz buffer, for 180 s. Nonspecific binding controls were performed, such as binding of 100 nM of NCPs on biosensors without biotinylated peptides loaded, as well as binding of Blitz buffer on loaded biosensors. For each time point measured, data of this second control (binding of Blitz buffer on biosensors loaded with biotinylated Gag WT peptide) were subtracted to every condition and were plotted on curves, using Prism 9 software.

Assay [3] concerns recombinant NCPs. The assay can be described thus: BLI of immobilized biotinylated peptides with recombinant NCP. As to conditions: for BLI interaction with nucleosomes: peptide on streptavidin biosensor, NCP 10, 25, 50 or 100 nM, 1× PBS pH 7.4, 0.02% Tween 20, 0.1% BSA, representative of three experiments. The class given is binding, human.
From the text: Recombinant nucleosome core particles (NCPs) (mono-nucleosomes) were assembled as previously described [13]. Briefly, individual human histones H2A, H2B, H3, and H4 were purchased (The Histone Source; Colorado State University) and octamers were assembled by dialysis. The Widom-601 DNA [25] was generated by restriction enzyme digestion of a concatenated construct and purified by anion exchange chromatography onto a POROS-HQ column. NCPs were assembled with a ratio 1.1:1 (1.1 octamer:1 DNA) by successive steps of salt dialysis against TEN buffer (0–2 M NaCl, 10 mM Tris, pH 7.5, 1 mM ethylenediaminetetraacetic acid, 1 mM Dithiothreitol (DTT)). NCPs were kept at −80°C in 0 mM NaCl TEN buffer.
Quantitative interaction experiments were performed by biolayer interferometry (BLI), using a BLItz instrument (Octet® N1; Sartorius). Two different runs were performed: the first one, into water, to coat biosensors with biotinylated peptides (Table 1) and the second, into Blitz buffer [1× phosphate buffer saline, pH 7.4, 0.02% (v/v) Tween 20, 0.1% (w/v) BSA], to fix NCPs on immobilized peptides. All steps were performed under 2200 rpm shaking speed. Streptavidin biosensors (Octet®SA Biosensors; Reference 18-0009; Sartorius) were first pre-wet for at least 10 min with water. The baseline, with only water, was measured for 60 s. Ten micromolar Gag CBS biotinylated peptides (or H4 biotinylated peptides), diluted in water, were loaded onto the biosensors, for 180 s, to reach a binding of ∼1.5 nm, followed by a dissociation step of 180 s. Following the first run, coated biosensors were equilibrated for at least 10 min in Blitz buffer. The second run started with 60 s of baseline, followed by the association step, where biosensors were dipped into serial dilutions of NCPs (10, 25, 50, or 100 nM), for 300 s. […] For each time point measured, data of this second control (binding of Blitz buffer on biosensors loaded with biotinylated Gag WT peptide) were subtracted to every condition and were plotted on curves, using Prism 9 software.
For assay [4], the target named is Gag Y537Q biotinylated peptide (PFV Gag CBS Y537Q) (prototype foamy virus (PFV)). In words: BLI; biotinylated Gag CBS peptides on streptavidin biosensors; NCP 10, 25, 50 or 100 nM in solution; 1× PBS pH 7.4, 0.02% Tween 20, 0.1% BSA; BLItz instrument. For orientation: Biolayer interferometry detects binding as a change in optical thickness at a sensor tip.

In the case of “Biotin-GGQNLRPRTYQPQRYG-OH [Y537Q CBS peptide, Biotinylated PFV Gag CBS peptide with Tyr537Gln substitution]”, in the assay on recombinant NCPs [1], the pull-down of nucleosomes result was “affected nucleosome interaction, though largely in a salt-independent manner”. Further, in assay [2], the “binding to NCP saturated with WT H4 tail” value is recorded as “unable to effectively compete”. In addition, in assay [2] (100 nM NCP pre-incubated with 100 μM H4 mut peptide at least 30 min at room temperature), the “binding to NCP saturated with H4 mut tail” value is recorded as “unable to effectively compete”.

Regarding “Biotin-GGYNLQPRTYQPQRYG-OH [R540Q CBS peptide, Biotinylated PFV Gag CBS peptide with Arg540Gln substitution]”, the “BLI interaction with nucleosomes” value with recombinant NCPs [3] is given as “almost complete reduction”. Moreover, the “pull-down of nucleosomes, physiological salt” value in the assay on recombinant NCPs [1] (125–150 mM NaCl) is listed as “virtually eliminated binding”. For the same substance, the “pull-down of nucleosomes, hypotonic conditions” value in the assay on recombinant NCPs [1] (low salt (below 125 mM NaCl)) is reported as “reduced binding”. The “binding to NCP saturated with WT H4 tail” value in assay [2] is “no interaction with the NCP”.

With “Biotin-GGYNLRPRTYQPQRYG-OH [WT CBS peptide]”, the “BLI interaction with nucleosomes” value with recombinant NCPs [3] is “strongest BLI interaction”. Besides, the pull-down of nucleosomes entry in the assay on recombinant NCPs [1] is “efficiently pulled down nucleosomes across tested salt concentrations”. Further, in assay [2], the “binding to NCP saturated with WT H4 tail” value is recorded as “reached the same level as without H4 tails”.

As for “Biotin-SGRGKGGKGLGKGGAKRHAAVLA-OH [H4 mut, reference compound]”, in the assay on recombinant NCPs [3] (BLI, immobilized H4 peptide, Supplementary Fig. S7), the “binding of H4 tail peptide to purified NCPs” value is recorded as “retains some residual binding”.

On to “Recombinant nucleosome core particle (human histone octamer on Widom-601 DNA) (from UniProt P04908 1-130; P06899 1-126; P68431 1-136; P62805 1-103) (complex)”, for which the fold reduction of the BLI interaction against the WT CBS peptide in assay [4] amounted to 5 fold.
